Measurements from PMC12040169 (PLOS Biology, 2025).

Assay: in vitro
Details: human, hela cells, % viability

Going from `Cc1ccc(C2=NN(C(=O)CNc3cc(F)cc(F)c3)C(c3ccco3)C2)cc1` (centres unmarked) [CBK297922] to `Cc1ccc(-c2oncc2C(=O)NCc2cccs2)cc1` [CBK153679], the viability at 28.5 h, 10 µM rises from 94.2% to 95.7%.

First: CC(Cn1cncn1)C(=O)NC(C)C1CC2CCC1C2 (centres unmarked) [CBK282089]
Second: Cc1nn(CCC#N)c(C)c1[C@@H]1C=C[C@@H](NC(=O)NC(C)C)C1 [CBK289172]
The viability at 28.5 h, 10 µM of the first is higher: 109% for the first, 89.2% for the second.

Going from `Cc1ccc(-c2cc(C(=O)Nc3ccc(S(N)(=O)=O)cc3)c3ccc(Cl)c(C)c3n2)cc1` [CBK267745] to `Cc1ccc(NC(=O)c2cnc3scc(C)n3c2=O)cc1` [CBK287454], the viability at 28.5 h, 10 µM falls from 111% to 107%.

Compared with `Cn1[nH]c(CO)c(Cc2c(Cl)cccc2Cl)c1=O` [CBK092278T], `Cc1nn(-c2ccccc2)c2[nH]c(=O)c(CNC(C)(C)C)cc12` [CBK282921] is higher in viability at 28.5 h, 10 µM: 95.4% for the first, 101% for the second.

First: CCN1CC2(CCN(CCCN(C)C)CC2)c2ccccc21 [CBK136988]
Second: CS(=O)(=O)N1CC2(CCN(Cc3ncc[nH]3)CC2)c2ccccc21 [CBK126680]
The viability at 28.5 h, 10 µM of the first is lower: 84.5% for the first, 98.8% for the second.

First: COc1ncccc1CNC(=O)Cn1ccc(=O)[nH]c1=O [CBK305596]
Second: COc1nc2ccn(CCNC(=O)C(C)C)c(=O)c2cc1C#N [CBK307015]
The viability at 28.5 h, 10 µM of the first is higher: 99.9% for the first, 95.8% for the second.

First: CC1(c2ccccc2)NC(NC2CCCCC2)=NC1=O (centres unmarked) [CBK008081]
Second: O=C1N(C2CCCCC2)CC2C(c3ccccc3)ONC12O (centres unmarked) [CBK021700]
The viability at 28.5 h, 10 µM of the first is higher: 97.3% for the first, 97% for the second.

Compared with `Cc1cc2nc(NS(C)(=O)=O)n(S(C)(=O)=O)c2cc1C` [CBK023112], `Cc1cc(C)c(C)c(S(=O)(=O)Nc2cc(S(=O)(=O)N3CCOCC3)ccc2F)c1C` [CBK269698] is lower in viability at 28.5 h, 10 µM: 106% for the first, 61.9% for the second.

First: CN1CCC(NC(=O)c2cc3ccccc3[nH]2)CC1 [CBK168633]
Second: CCc1nc2ccc(C(=O)NC3CCN(C)CC3)cn2c1N(C)C=O [CBK146594]
The viability at 28.5 h, 10 µM of the first is lower: 88.3% for the first, 108% for the second.

First: Clc1nccnc1N1CCCC1 [CBK083594]
Second: COc1ccccc1N1CCN(c2nccc3sc(S(=O)(=O)NC4CCC4)cc23)CC1 [CBK038248C]
The viability at 28.5 h, 10 µM of the first is higher: 101% for the first, 87.7% for the second.

Going from `Cc1nc2ccc(C(=O)N3CCN(C)CC3)cn2c1N(C)C(=O)CCc1ccccc1` [CBK146786] to `CN1CCN(C(=O)c2ccc(-c3ccco3)nc2N(C)C)CC1` [CBK106121], the viability at 28.5 h, 10 µM falls from 95.3% to 94.4%.

Compared with `O=C(NC1CCCC1)c1ccc(-c2cnc3[nH]c(=O)n(C4CCCCC4)c3n2)cc1` [CBK064582], `O=C(NC1CCCC1)c1ccc(=O)[nH]c1` [CBK058093] is lower in viability at 28.5 h, 10 µM: 113% for the first, 104% for the second.

Going from `Cc1ccc(C(=O)N2CCn3c2nc2ccccc23)cc1` [CBK288204] to `O=C(O)c1ccc(NS(=O)(=O)c2ccc3ccccc3c2)cc1` [CBK034053], the viability at 28.5 h, 10 µM falls from 108% to 96.6%.

First: O=C(CCN1CCOCC1)NNC(=O)Nc1cccc(C(F)(F)F)c1 [CBK269017]
Second: O=C(CSc1nnc(C2CC2)o1)Nc1ccc(CN2CCOCC2)cc1 [CBK305015]
The viability at 28.5 h, 10 µM of the first is higher: 104% for the first, 86% for the second.

First: COCCCn1c(=O)[nH]c2ncc(-c3cnc(OC)nc3)nc21 [CBK064618]
Second: COc1ccc(-c2nc(NC(=O)CSc3nnc(C)s3)ns2)cc1 [CBK267290]
The viability at 28.5 h, 10 µM of the first is lower: 92% for the first, 96.9% for the second.

First: CC12CCC(C(=O)N(CC(O)Cn3c4ccc(Br)cc4c4cc(Br)ccc43)C1=O)C2(C)C (centres unmarked) [CBK262449]
Second: COc1ccc(-c2c(C(F)(F)F)oc3c(CN4CC(C)OC(C)C4)c(O)ccc3c2=O)cc1OC (centres unmarked) [CBK217829]
The viability at 28.5 h, 10 µM of the first is lower: 94.4% for the first, 100% for the second.

First: Cc1ccc(-c2c[nH]c([C@@H]3COCCN3Cc3csnn3)n2)cc1 [CBK289302]
Second: CCc1ccc(CNC(=O)Cn2cc(-c3ccc(CN4CCC(CO)CC4)cc3)nn2)cc1 [CBK167551]
The viability at 28.5 h, 10 µM of the first is lower: 91.4% for the first, 105% for the second.

First: Cc1ccc(C(=O)O)cc1NC(=O)CSc1nc2scc(C3CC3)c2c(=O)n1-c1ccccc1 [CBK297481]
Second: O=C(Nc1cccc(Cn2cccn2)c1)c1csc2ccccc12 [CBK268123]
The viability at 28.5 h, 10 µM of the first is higher: 107% for the first, 93.2% for the second.

First: Cc1nc(C)n(CC2CCCN(Cc3cn4ccccc4n3)C2)n1 (centres unmarked) [CBK304028]
Second: Cc1nn(CC(C)C)c(C)c1CCC(=O)NCc1nnc2ccccn12 [CBK305719]
The viability at 28.5 h, 10 µM of the first is higher: 88.3% for the first, 88.1% for the second.

Compared with `COC(=O)c1ccc(N2CCN(C(C)c3nnc(C)o3)C(C)C2)cc1` (centres unmarked) [CBK304926], `Cc1nnc(SCC(=O)N2CCN(c3ccc(Cl)cc3)CC2)s1` [CBK307389] is lower in viability at 28.5 h, 10 µM: 108% for the first, 87.5% for the second.

Compared with `Cc1cccnc1NC(=O)C(C)n1cc([N+](=O)[O-])cn1` (centres unmarked) [CBK268918], `COCCN(Cc1ccncc1)C(=O)c1cnc2ccnn2c1C` [CBK306965] is lower in viability at 28.5 h, 10 µM: 104% for the first, 92.3% for the second.

Going from `CCOc1ccccc1NC(=O)Nc1cccc(S(N)(=O)=O)c1` [CBK057282] to `Cc1ccc(S(N)(=O)=O)cc1CNC(=O)Nc1cccc(F)c1` [CBK093516], the viability at 28.5 h, 10 µM falls from 91.3% to 83.9%.

Going from `CSc1nnc(CCCNc2cccc(C#N)n2)n1CC(C)C` [CBK306449] to `O=C(Cn1c(NCCCO)nc2ccccc21)c1ccco1` [CBK264099B], the viability at 28.5 h, 10 µM falls from 96.8% to 94.7%.

Compared with `O=C(O)c1cccc(/N=C/c2ccc(/C=N/c3cccc(C(=O)O)c3)cc2)c1` [CBK261088], `CN(C)c1cccc(C(=O)Nc2cnc(-c3cccc(C(F)(F)F)c3)c(-c3cccnc3)n2)c1` [CBK036752] is lower in viability at 28.5 h, 10 µM: 92.3% for the first, 90.4% for the second.

Compared with `CN1C2CCCC1CC(OC(=O)c1cccc3nc[nH]c13)C2` (centres unmarked) [CBK090162], `O=C(C1CCCCC1)N1CCCC1c1n[nH]cc1-c1ccncc1` (centres unmarked) [CBK283434] is lower in viability at 28.5 h, 10 µM: 99.3% for the first, 87.2% for the second.

Compared with `Cn1ncnc1CCNC(=O)N1CCCN(Cc2cccs2)CC1` [CBK307670], `CN1CCC(N2CCN(C(=O)NCc3cccnc3)CC2)CC1` [CBK155889] is lower in viability at 28.5 h, 10 µM: 95.8% for the first, 89.2% for the second.

Going from `COc1ccc(C)cc1C1(CNC(=O)C2CCC(=O)N2)CCOCC1` (centres unmarked) [CBK304967] to `Cc1cc(-c2ccc(=O)n(CCNC(=O)C3CC3)n2)c(C)o1` [CBK284521], the viability at 28.5 h, 10 µM falls from 94.8% to 93.2%.

Going from `N/N=C(\CCC(=O)O)c1ccccc1` [CBK261306] to `O=C(NCCO)NC(=S)c1ccccc1` [CBK267213], the viability at 28.5 h, 10 µM falls from 98.3% to 95.2%.

Compared with `CC(=O)c1ccc(-c2ccc(C(=O)NCC3COc4ccccc4O3)c(NCc3cccnc3)n2)s1` (centres unmarked) [CBK076608], `c1ccc(-c2nc3cnccn3c2Nc2ccc3c(c2)OCCO3)cc1` [CBK287857] is lower in viability at 28.5 h, 10 µM: 97.9% for the first, 94.4% for the second.

First: CC(=O)NCCSc1nc2ccccc2nc1C(F)(F)F [CBK105303]
Second: CCNC(=O)CN1CCN(c2ccc(C#N)cc2C(F)(F)F)CC1 [CBK306112]
The viability at 28.5 h, 10 µM of the first is higher: 89.6% for the first, 85% for the second.

Going from `Cc1cc(I)ccc1OCCCCN1CCN(C)CC1` [CBK269652C] to `COc1ccc2ccccc2c1CN1CCN(C/C=C/c2ccccc2)CC1` [CBK261899], the viability at 28.5 h, 10 µM rises from 91.3% to 108%.

Going from `Cc1cc(C)cc(OCc2nnc(SCC(=O)N3CCN(c4ccccc4)CC3)o2)c1` [CBK268012] to `c1ccc(Oc2cccc(CN3CCC(N4CCN(c5ccccc5)CC4)CC3)c2)cc1` [CBK264662G], the viability at 28.5 h, 10 µM falls from 96.7% to 88%.

First: O=C(O)c1ccc2c(c1)C(=O)N(C1=NCCS1)C2=O [CBK021809]
Second: COCC(=O)Nc1ccc(Cl)c(NC(=O)NCCN2CCCC2=O)c1 [CBK306663]
The viability at 28.5 h, 10 µM of the first is higher: 89.6% for the first, 87.9% for the second.

Going from `O=C(NCc1ccc2c(c1)OCO2)N1CCCC(CO)C1` (centres unmarked) [CBK156034] to `CCCC/C=C/c1nccnc1NCc1ccc2c(c1)OCO2` [CBK037304], the viability at 28.5 h, 10 µM falls from 104% to 98.1%.

First: O=C(c1c(NS(=O)(=O)c2cccc3cccnc23)sc2c1CCCC2)N1CCOCC1 [CBK028655]
Second: COc1cccc(Nc2c(C(=O)N3CCCCC3)cnc3nc(C)ccc23)c1 [CBK287817]
The viability at 28.5 h, 10 µM of the first is lower: 84.2% for the first, 96% for the second.

First: N#Cc1nc(-c2ccccc2)oc1NCCN1CCCCC1 [CBK264573]
Second: O=C(NCCN1CCOCC1)c1cc(-c2ccc(Cl)cc2Cl)nc2ccccc12 [CBK265379]
The viability at 28.5 h, 10 µM of the first is lower: 93.5% for the first, 113% for the second.

Going from `O=c1nc2c(cn1[C@H]1C[C@@H](O)[C@@H](CO)O1)Sc1ccccc1N2` [CBK201237] to `O=C(NCC(c1ccccc1)c1ccccc1)N1CCCCC1CO` (centres unmarked) [CBK156186], the viability at 28.5 h, 10 µM falls from 100% to 93.5%.

Compared with `O=C(CN1CCCC2(CCN(C(=O)c3cc(F)c(F)cc3F)C2)C1)Nc1ccc(F)c(Cl)c1` (centres unmarked) [CBK132008], `COC(=O)c1cc(NS(=O)(=O)c2cc(Cl)ccc2Cl)cc(C(=O)OC)c1` [CBK077853] is higher in viability at 28.5 h, 10 µM: 96.9% for the first, 105% for the second.

Compared with `COc1cccc(Nc2nnc(-c3cc4cc(OC)ccc4oc3=O)s2)c1` [CBK264432], `CCOc1ccc(OC(=O)c2ccc(OC(F)(F)F)cc2)cc1` [CBK149207] is higher in viability at 28.5 h, 10 µM: 94.1% for the first, 95.8% for the second.

Going from `CCc1cc(Br)ccc1S(=O)(=O)NCCCC(=O)OC` [CBK044788] to `CCOC(=O)CS(=O)(=O)Cc1cc(Cl)nc(Cl)c1` [CBK005544], the viability at 28.5 h, 10 µM rises from 88.2% to 109%.

Going from `CC(C)n1c(=O)n(CC(=O)N(C)C2CCCCC2)c2cccnc21` [CBK283695] to `O/N=C1\CC2(CCCCC2)c2ccccc21` [CBK013318], the viability at 28.5 h, 10 µM falls from 95.6% to 83%.

First: O=C(Nc1cccc2[nH]ccc12)c1cccc(F)c1Cl [CBK159638]
Second: CN(C)c1ccc(-n2ccn(S(=O)(=O)c3ccc(Oc4ccccc4)cc3)c2=O)cc1 [CBK106608]
The viability at 28.5 h, 10 µM of the first is lower: 76.4% for the first, 89.3% for the second.

First: O=C1N(CN2CCN(C(c3ccccc3)c3ccccc3)CC2)c2ccccc2C12OCCCO2 [CBK265538]
Second: N#C/C(=C\c1cn(-c2ccccc2)nc1-c1ccc(S(=O)(=O)N2CCOCC2)cc1)c1nc2ccccc2c(=O)[nH]1 [CBK266343]
The viability at 28.5 h, 10 µM of the first is lower: 85.6% for the first, 104% for the second.

First: CC(=O)N1c2ccc(C(O)CN3CCSCC3)cc2CC1C (centres unmarked) [CBK283143]
Second: CC(C)C(=O)N1CCC(OCc2ccc(-c3ccc(C(=O)N(C)C)cc3)cc2S(C)(=O)=O)CC1 [CBK155921]
The viability at 28.5 h, 10 µM of the first is lower: 98.9% for the first, 102% for the second.

For `O=C(NC1CCCOC1)c1cc(-c2cccs2)no1` (centres unmarked) [CBK282565], the viability at 28.5 h, 10 µM was 82%.
